{"source": "patent US20240140895A1", "about": "“NOVEL AROMATIC MOLECULES” (XENIOPRO GmbH, priority 2018, published 2024)", "tested_on": "Notch signaling (human Notch1 receptor, hNotch1ΔE)", "test": "Notch reporter assay (dual luciferase, HeLa cells transfected with hNotch1ΔE)", "format": "cell-based", "conditions": "10 μM", "from_the_text": "The activation level of Notch signaling can be quantified in vitro reliably by measuring the expression levels of Notch specific target genes. This can be accomplished by the quantification of corresponding mRNA or protein of a particular Notch target gene. Alternatively, cells can be genetically modified to carry a luciferase gene as an artificial Notch target gene, which is expressed in dependence of Notch activity. In this setting, Notch signaling levels can be quantified by measuring the luciferase-derived bioluminescence values.\nAn according Notch-reporter assay, i.e. a luciferase-based luminescence readout, was used here to quantify the ability of the claimed compounds to augment Notch signaling in a cellular system. […] After 24 hours of transfection, the transfected cells were carefully detached from the dish using 0.5 mM EDTA in PBS and seeded into 96-well plates suitable for luminescence readouts (CORNING, #3610) at 10,000 cells per well. […] Directly after the lysis, first the Firefly and then the Renilla luciferase values were measured consecutively from the same well with a luminescence reader immediately after applying 15 μL per well each of the corresponding enzyme substrates needed to create the luminescence signals (Promega, Dual-Luciferase® Reporter Assay System, #E1910). […]"}
{"smiles": "Oc1ccc(C=Cc2cc(O)cc(O)c2)cc1", "note": "[RES, resveratrol, reference compound]", "values": [{"measurement": "Activity Range: weighted arithmetic mean (AVEw) of double-normalized Notch-reporter luminescence, relative to DMSO basis level 1.0", "result": "1.9 ± 0.5"}]}
